Test results published in US7214539B2, “Scintillation proximity test” (GE Healthcare Limited, priority 1997, dated 2007).

Key:
[1] = molecular target: T1, HIV reverse transcriptase (Human immunodeficiency virus type 1 group M subtype B, UniProt P04585); assay: Reverse transcriptase inhibition assay with streptavidin-coated polystyrene europium beads and CCD imaging; format: biochemical
T1 construct: 0.05 units of HIV reverse transcriptase (Amersham T3610Y); purchased Amersham T3610Y
Description: The reverse transcriptase enzyme SPA assay (Amersham NK8972) is a homogeneous assay system which uses a biotinylated DNA/RNA oligonucleotide enzyme substrate which is captured on streptavidin PVT SPA beads for quantification. In this assay, streptavidin-coated organic chelate beads prepared from polystyrene (PST) containing europium were used and the inhibition of reverse transcriptase by aurintricarboxylic acid determined.
Biotinylated, ready annealed primer/template was added to the wells of a white microplate. This was followed by [^3H]TTP (Amersham TRK576) in 127 nM mixture of dATP, dCTP, dGTP, and TTP buffered in tris/HCl pH 8.0, 80 mM KCl, 10 mM MgCl2, 10 mM DTT and 0.05% w/v Nonidet P40. Aurintricarboxylic acid at concentrations between 0.05 and 1 μM was added and the reactions were initiated by the addition of 0.05 units of HIV reverse transcriptase (Amersham T3610Y). Plates were incubated at 37° C. for 20 minutes and were terminated with the addition of stop reagent. 0.1 mg of streptavidin coated PST beads was added and the plates were incubated overnight at room temperature. The signal generated was detected using the CCD imaging system.

[2] = molecular target: T1, HIV reverse transcriptase; assay: Reverse transcriptase enzyme SPA assay (conventional SPA, streptavidin PVT SPA beads); format: biochemical
From the text: The reverse transcriptase enzyme SPA assay (Amersham NK8972) is a homogeneous assay system which uses a biotinylated DNA/RNA oligonucleotide enzyme substrate which is captured on streptavidin PVT SPA beads for quantification. […]

SMILES: O=C(O)C1=CC(=C(c2ccc(O)c(C(=O)O)c2)c2ccc(O)c(C(=O)O)c2)C=CC1=O [aurintricarboxylic acid]
- IC50 [1]: 230 nM
- inhibition of reverse transcriptase activity ([1]; 1 μM of inhibitor, PST beads, CCD imaging): 85%
- IC50 [2]: 180 nM
